Experimental data as given in US20240002435A1, “SYNTHETIC PEPTIDE AND APPLICATION THEREOF” (Wuhan Innerse Pharmaceutical Inc., priority 2021, published 2024).
Where “and” joins values, the source holds several entries; their conditions need not be identical. Equal entries are not always repeated. Where no end group is shown, it is not given here. [ ]: non-standard residue; d: D form. βAla = NCCC(=O)O

Legend:
[1] = test system: rat model of cerebral ischemia (middle cerebral artery occlusion, MCAO); test: MCAO rat cerebral ischemia model, TTC staining, cerebral infarct volume (Example 9); type: in vivo, SD rats; settings: for Cerebral infarction volume (TTC quantification), mean value / Cerebral infarction volume (TTC quantification): 3 mg/kg tail vein 1-2 h after suturation, read 22-24 h; for Cerebral infarction volume (TTC quantification), mean value: mean of 6 rats
Procedure: (§1) In order to determine the application of the synthetic peptides provided by the present invention in neurological diseases, the present invention uses SD rats as experimental objects, and performs middle cerebral artery occlusion method (MCAO) to prepare rat model of cerebral ischemia. These rats were injected drugs intravenously 1-2 hours after ischemia, and a behavioral observation and scoring was conducted for each animal after 22-24 hours. After the behavioral observation, the experimental rats were euthanized and their brains were removed, cut to sections and stained with TTC for quantitative analysis, and the cerebral infarct volume % was calculated.
(§2) The experimental SD rat was weighed and anesthetized with chloral hydrate. After anesthesia, the limbs of the rat were fixed, and the rat was placed in a supine position, connected to the small-animal monitor, and monitored for important physiological parameters such as body temperature, blood pressure and heart rate, etc. The rat's neck was shaved and disinfected with 75% alcohol cotton ball. A middle incision of about 2 cm length was then made on the neck of the experimental rat, and the submandibular gland of the rat was bluntly separated while avoiding damage to the gland. Then, the left common carotid artery (CCA) of the experimental rat was bluntly separated, and the internal carotid artery (ICA) and external carotid artery (ECA) were carefully separated upward along the CCA. Any damage to vagus nerves was avoided during the separation. The CCA and ICA were clamped respectively with two artery clamps, and the distal end of the ECA was cut off and a silicone suture emboli was inserted into the ECA “port” to the ICA artery clamp, then the artery clamp was quickly loosened and the tip of the suture emboli was put in through the artery clamp quickly before clamping the ICA again. This step was repeated and the suture emboli was put in further until the black mark of the suture emboli reached the bifurcation of the ECA and ICA, and the tip of the suture emboli blocked the middle cerebral artery and then the ECA “port” and the suture emboli was tied tightly using a thread in order to prevent the “escape” of suture emboli or bleeding after the rat waked up. The artery clamps on the CCA and ICA were then loosed and removed to restore the tissue to its original position, and an appropriate amount of penicillin was applied to prevent wound infection. A medical suture needle with thread was used to suture, and the wound was disinfected using povidone-iodine again after the suturation. The experimental rats were monitored with the small-animal monitor to evaluate if their physiological parameters were normal, and the rats were placed on a small-animal electric blanket to keep their body temperature until they waked up, and placed in animal cages.
(§3) The drug to be tested was prepared as 3 mg/mL solution. The drug was dosed via tail vein 1-2 h after the suturation.
(§4) During the drug administration, the rat was fastened with a fastening device, and the drug to be tested was injected into the tail vein of the rat at 3 mg/kg using 1 mL syringe, the drug was injected slowly to reduce the cardiopulmonary load of the experimental rat.
(§5) The animals were divided into different test groups, with 6 rats for each group.
(§6) Drug groups S1 (NA1), S8 (beta-Ala-His-Gly) and S9 (Gly-beta-Ala-His): administered via tail vein after the suturation;
After behavioral observations, experimental rats were euthanized and their brains were removed. The brain tissue was transversely cut into 6 slices with a 2 mm thickness, then transferred to TTC staining solution, incubated in a 37° C. incubator without light for 10 min, and taken pictures. The TTC-stained brain tissue and the remaining non-stained brain tissue were stored at −20° C.
Quantitative analysis of photos after TTC staining was performed using Image J software. […]

[2] = test system: rat model of cerebral ischemia (middle cerebral artery occlusion, MCAO); test: MCAO rat cerebral ischemia model, blinded behavioral scoring 0-5 points (Example 9); type: in vivo, SD rats; settings: 3 mg/kg tail vein; for Behavioral score, mean value / Behavioral score: 22-24 h after suturation, scale 0-5 points; for Behavioral score, mean value: mean of 6 rats
Procedure: as §1, §2, §3, §4, §5, §6
The behavioral observation and scoring were performed on each animal 22-24 h after the suturation.

[3] = test system: patients with acute ischemic stroke (AIS) undergoing endovascular thrombectomy; settings: 2.6 mg/kg intravenous injection; cited from earlier work
[4] = test system: experimental cerebral ischemia-reperfusion in animals; settings: cynomolgus monkeys, preclinical ischemic stroke model; cited from earlier work
[5] = Dose-effect experiment, body weight of MCAO model animals (Example 10); settings: mean ± SD
Procedure: The establishment of rat model: the rats were placed in an anesthesia induction box filled with 3.0% isoflurane for anesthesia induction. Anesthesia-induced animals were transferred to the operating table, and anesthesia was maintained with 2.0%˜2.5% isoflurane at 200 mL/min using a small-animal gas anesthesia machine, and the eyelid reflex and pain response of the rats were observed. The surgery can be started only after the eyelid reflex response and the pain response on limbs and tail disappeared. • A. Isolating and exposing blood vessels: the skin of the surgical area was shaved, and the rat was placed under a surgical microscope. The skin of the rat was cut along the midline with ophthalmic scissors, with a cut of about 2 cm length. […]
Animals measured: all the surviving experimental animals planned to be measured;
Measurement time: the body weight was measured at least twice during the accommodation, and each batch of rats were weighed once on the day before the surgery and on the day of dissection to calculate the amount of drug administered and the anesthetic applied; the body weight was measured twice a week after the surgery.

[6] = test system: suture-embolized MCAO model, rat cerebral ischemic stroke; test: Dose-effect experiment, suture-embolized MCAO ischemia-reperfusion, TTC infarct size and inhibition rate (Example 10); type: in vivo, Sprague-Dawley (SD) rats
Procedure: The establishment of rat model: the rats were placed in an anesthesia induction box filled with 3.0% isoflurane for anesthesia induction. Anesthesia-induced animals were transferred to the operating table, and anesthesia was maintained with 2.0%˜2.5% isoflurane at 200 mL/min using a small-animal gas anesthesia machine, and the eyelid reflex and pain response of the rats were observed. The surgery can be started only after the eyelid reflex response and the pain response on limbs and tail disappeared. • A. Isolating and exposing blood vessels: the skin of the surgical area was shaved, and the rat was placed under a surgical microscope. The skin of the rat was cut along the midline with ophthalmic scissors, with a cut of about 2 cm length. Through the right neck of the rat, the muscle tissue of the right neck was bluntly isolated and opened with a microforcep to expose the right common carotid artery (CCA), and then isolated upward along the common carotid artery to further expose the external carotid artery (ECA) and internal carotid artery (ICA); • B. The ECA was ligated and the ICA was temporarily clamped; the proximal end and distal end of CCA were threaded separately, the distal end was tied tightly and the proximal end was tied with a loose knot, and a small incision was made between the two threads; • C. Inserting the suture emboli: A No. 4-0 suture emboli was inserted through the incision of CCA, pushed slowly and gently into the internal carotid artery, and stopped at the artery clamp of ICA, the pre-set thread was tied tightly (to avoid severe bleeding when pushing the suture emboli), then the artery clamp that blocked the blood flow of ICA was removed, and the suture emboli was immediately pushed into ICA until entering into the cranium. At the moment, one should be careful not to insert the suture emboli into the pterygopalatine artery, which is another branch of the internal carotid artery (the pterygopalatine artery is one of the extra-cranial branches of ICA; when the suture emboli entered the pterygopalatine artery to a depth of about 10 mm, it cannot be inserted further, at the moment one should slightly draw back the suture emboli, adjust the direction, and insert again); • D. Fixing the suture emboli and suturing the incision: if one felt slight resistance when the suture emboli was inserted about 18 mm depth from the bifurcation of the common carotid artery, it means that the tip of the suture emboli has entered into the cerebral anterior artery (ACA), and the side wall of the suture emboli has blocked the opening of the middle cerebral artery; at the moment, the insertion was terminated and the time was recorded. […]

[7] = test system: suture-embolized MCAO model, rat cerebral ischemic stroke; test: Dose-effect experiment, Bederson score (Example 10); type: in vivo, Sprague-Dawley (SD) rats; settings: 3 mg/kg group; 1 hour after ischemia, i.e. before dosing (model check); mean ± SD
Procedure: Measurement time: 1 hour after ischemia on the day of modeling;
Animals measured: all the animals survived in surgery;
Measurement method: the Bederson scoring standard was used to score animals.

[8] = test system: suture-embolized MCAO model, rat cerebral ischemic stroke; test: Dose-effect experiment, rat neurological function score NSS (Example 10); type: in vivo, Sprague-Dawley (SD) rats; settings: mean ± SD
Procedure: Measurement time: 24 hours before and after modeling;
Measurement method: a motor function test, sensory test, balance test, and reflex and abnormal behavior test were performed on animals, according to the rat neurological function score scale (NS S) for details.

[9] = 3 mg/kg group, D 0 = 1 day before surgery (baseline)
[10] = 3 mg/kg i.v., D 2 = 1 day after surgery

Substance: Gly-[βAla]-His [S9]
- Infarct volume, statistical comparison with S1 (NA1) ([1]; 3 mg/kg tail vein): not statistically different from S1
- Cerebral infarction volume (TTC quantification), mean value [1]: 0.197±0.059 and 0.197
- Cerebral infarction volume (TTC quantification) ([1]; rat No. 1): 0.239
- Cerebral infarction volume (TTC quantification) ([1]; rat No. 2): 0.206
- Cerebral infarction volume (TTC quantification) ([1]; rat No. 3): 0.208
- Cerebral infarction volume (TTC quantification) ([1]; rat No. 4): 0.263
- Cerebral infarction volume (TTC quantification) ([1]; rat No. 5): 0.171
- Cerebral infarction volume (TTC quantification) ([1]; rat No. 6): 0.095
- Behavioral score, statistical comparison with S1 (NA1) [2]: not statistically different from S1
- Behavioral score, mean value [2]: 2.0
- Behavioral score, mean value ([2]; listed as Gly-beta-Ala-His): 2.0±0.9
- Behavioral score ([2]; rat No. 1): 3
- Behavioral score ([2]; rat No. 2): 3
- Behavioral score ([2]; rat No. 3): 2
- Behavioral score ([2]; rat No. 4): 2
- Behavioral score ([2]; rat No. 5): 1
- Behavioral score ([2]; rat No. 6): 1

Substance: YGRKKRRQRRRKLSSIESDV [S1, Nerinetide]
- Effect on patient's prognosis [3]: improved patient's prognosis
- Effect on infarct size of experimental cerebral ischemia-reperfusion [4]: reduce the infarct size
- Cerebral infarction volume (TTC quantification), mean value [1]: 0.157
- Cerebral infarction volume (TTC quantification) ([1]; rat No. 1): 0.187
- Cerebral infarction volume (TTC quantification) ([1]; rat No. 2): 0.218
- Cerebral infarction volume (TTC quantification) ([1]; rat No. 3): 0.153
- Cerebral infarction volume (TTC quantification) ([1]; rat No. 4): 0.145
- Cerebral infarction volume (TTC quantification) ([1]; rat No. 5): 0.107
- Cerebral infarction volume (TTC quantification) ([1]; rat No. 6): 0.134
- Weight D 0 [5, 9]: 251.91 ± 8.69 g
- Weight D 2 [5, 10]: 203.7 ± 10.94 g
- Infarct weight ([6]; 3 mg/kg i.v. once within 10 min after reperfusion, 24 h after treatment, mean ± SD): 0.24 ± 0.02 g
- Infarct size ([6]; 3 mg/kg i.v. once within 10 min after reperfusion, TTC 24 h after treatment, infarct weight / whole brain weight, mean ± SD): 16.74±3.14%
- Inhibition rate of cerebral infarction ([6]; 3 mg/kg i.v., calculated from infarct size vs model control group): 33%
- Behavioral score, mean value [2]: 2.0
- Behavioral score, mean value ([2]; listed as NA1): 2.0±0.6
- Behavioral score ([2]; rat No. 1): 2
- Behavioral score ([2]; rat No. 2): 2
- Behavioral score ([2]; rat No. 3): 2
- Behavioral score ([2]; rat No. 4): 2
- Behavioral score ([2]; rat No. 5): 1
- Behavioral score ([2]; rat No. 6): 3
- Bederson [7]: 3 ± 0
- NSS score D 0 [8, 9]: 0 ± 0
- NSS score D 2 [8, 10]: 8.00±0.76
